According to patent US6352958B1, “Cycloimido-substituted benzofused heterocyclic herbicides” (FMC Corporation, priority 1997, dated 2002):

Assays:
[1] = system: wheat (Triticum aestivum var. Lew); test: Preemergence herbicidal activity, wheat; assay type: in vivo; conditions: Triticum aestivum, pre-emergence, Rate of Application 0.3 Kg/Ha, examined after 12-17 days, read-out: PREEMERGENCE HERBICIDAL ACTIVITY (% CONTROL) WHT
[2] = system: soybean (Glycine max var. Winchester); test: Postemergence herbicidal activity, soybean; assay type: in vivo; conditions: Glycine max, post-emergence, rate of application 0.3 Kg/Ha, rated after 12-17 days, read-out: Postemergence herbicidal activity (% control) SOY
[3] = system: field corn (Zea mays var. Pioneer 3732); test: Preemergence herbicidal activity, corn; assay type: in vivo; conditions: Zea mays, pre-emergence, Rate of Application 0.3 Kg/Ha, examined after 12-17 days, read-out: PREEMERGENCE HERBICIDAL ACTIVITY (% CONTROL) CRN
[4] = system: common chickweed (Stellaria media); test: Postemergence herbicidal activity, chickweed; assay type: in vivo; conditions: Stellaria media, post-emergence, rate of application 0.3 Kg/Ha, rated after 12-17 days, read-out: Postemergence herbicidal activity (% control) STEME
[5] = system: velvetleaf (Abutilon theophrasti); test: Preemergence herbicidal activity, velvetleaf; assay type: in vivo; conditions: Abutilon theophrasti, pre-emergence, Rate of Application 0.3 Kg/Ha, examined after 12-17 days, read-out: PREEMERGENCE HERBICIDAL ACTIVITY (% CONTROL) ABUTH
[6] = system: velvetleaf (Abutilon theophrasti); test: Postemergence herbicidal activity, velvetleaf; assay type: in vivo; conditions: Abutilon theophrasti, post-emergence, rate of application 0.3 Kg/Ha, rated after 12-17 days, read-out: Postemergence herbicidal activity (% control) ABUTH

| Structure (SMILES) | inhibition at 300 g/ha [1] [%] | inhibition at 300 g/ha [2] [%] | inhibition at 300 g/ha [3] [%] | inhibition at 300 g/ha [4] [%] | inhibition at 300 g/ha [5] [%] | inhibition at 300 g/ha [6] [%] | melting point [°C] |
| --- | --- | --- | --- | --- | --- | --- | --- |
| CC(C)c1nc2c(-n3c(=O)cc(C(F)(F)F)n(C)c3=O)c(F)cc(Cl)c2o1 [Compound 28, 1-METHYL-6-TRIFLUOROMETHYL-3-[7-CHLORO-5-FLUORO-2-(1-METHYLETHYL)BENZOXAZOL4-YL]-2,4(1H,3H)-PYRIMIDINEDIONE] | 100 | 100 | 95 | 100 | 100 | 100 |  |
| CCc1nc2c(-n3c(=O)cc(C(F)(F)F)n(C)c3=O)c(F)cc(Cl)c2[nH]1 [Compound 367, 3-(4-CHLORO-2-ETHYL-6-FLUOROBENZIMIDAZOL-7-YL)-1-METHYL-6-TRIFLUOROMETHYL-2,4(1H,3H)-PYRIMIDINEDIONE] | 95 | 100 | 100 | 100 | 100 | 100 | 150 to 155 |
| Cn1c(C(F)(F)F)cc(=O)n(-c2c(F)cc(Cl)c3[nH]c(C(F)(F)F)cc23)c1=O [Compound 500, 3-(7-CHLORO-5-FLUORO-2-TRIFLUOROMETHYLINDOL-4-YL)-1-METHYL-6-TRIFLUOROMETHYL-2,4(1H,3H)-PYRIMIDINEDIONE] | 75 | 95 | 90 | 90 | 100 | 100 | 208 to 210 |
